Patent US20250049779A1, “COMBINATION OF AN A2-ADRENOCEPTOR SUBTYPE C (ALPHA-2C) ANTAGONIST WITH A NOREPINEPHRINE REUPTAKE INHIBITOR FOR THE TREATMENT OF SLEEP APNEA” (Bayer Aktiengesellschaft, priority 2021, published 2025)

Tested on: upper airway collapsibility
Experiment: pig model of obstructive sleep apnea (OSA): collapse of the upper respiratory tract induced by negative pressure in anaesthetized, spontaneously breathing pigs
Type: in vivo, German Landrace pigs
Conditions: for Percent pigs without collaps −150 cm H2O, %: −150 cm H2O (column head; title prints −100)
Description: The therapeutic potential of the combination of an α2-Adrenoceptor subtype C (alpha-2C) antagonists with a noradrenaline reuptake inhibitor according to the present invention in sleep apnea can be assessed preclinically in a pig model of obstructive sleep apnea (OSA).
Using negative pressure, it is possible to induce collapse and thus obstruction of the upper respiratory tract in anaesthetized, spontaneously breathing pigs (Wirth K. J. et al., Sleep 36(5) (2013) pp. 699-708).
German Landrace pigs are used for the model. The pigs are anaesthetized and tracheotomized. Two tracheal cannulas are inserted into the trachea, one into the rostral part and the other into the caudal part of the trachea. Using a connection piece, the rostral cannula is connected to a tube to the negative pressure device and to the distal tracheal cannula. The distal tracheal cannula is additionally connected to a tube with an open end to atmosphere via a connection piece that served for free tracheal breathing, circumventing the upper airway. By appropriate opening and clamping of those tubes breathing can be switched from nasal breathing to breathing through the caudal tracheal cannula, circumventing the upper airway, and the (isolated) upper airway can be connected to the negative pressure device, causing airflow in the inspiratory direction.
At certain points in time, the collapsibility of the upper respiratory tract is tested by having the pig breathe via the caudal cannula and applying negative pressures of −50, −100 and −150 cm water head (cm H2O) to the upper respiratory tract. This causes the upper respiratory tract to collapse, which manifests itself in an interruption of the airflow and a pressure drop in the tube system. This test is conducted prior to the administration of the test substance and at certain intervals after the administration of the test substance. An appropriately effective test substance can prevent this collapse of the respiratory tract in the inspiratory phase.

[1] = intravenous bolus 20 μg/kg then infusion 12.5 μg/kg/h for four hours, time 0 min (time of administration)
[2] = intravenous bolus 20 μg/kg then infusion 12.5 μg/kg/h for four hours, time 10 min
[3] = intravenous bolus 20 μg/kg then infusion 12.5 μg/kg/h for four hours, time 30 min
[4] = intravenous bolus 20 μg/kg then infusion 12.5 μg/kg/h for four hours, time 60 min
[5] = intravenous bolus 20 μg/kg then infusion 12.5 μg/kg/h for four hours, time 120 min
[6] = intravenous bolus 20 μg/kg then infusion 12.5 μg/kg/h for four hours, time 180 min
[7] = intravenous bolus 20 μg/kg then infusion 12.5 μg/kg/h for four hours, time 240 min

C[C@@H]1CCCN(C2CCN(c3ncc(C(=O)NCc4ncc(F)cc4F)s3)CC2)C1 [N-[(3,5-difluoropyridin-2-yl)methyl]-2-[(3R)-3-methyl[1,4′-bipiperidin]-1′-yl]-1,3-thiazole-5-carboxamide]
inhibited upper airway collapsibility at all negative pressures of −50, −100 and −150 cm head (cm H2O) in all pigs (0.01 mg/kg intraduodenal): at no time point | upper airway collapsibility at the negative pressures of −50 and −100 cm head (cm H2O) (0.01 mg/kg intraduodenal, 120 min after administration): inhibited | upper airway collapsibility at the negative pressure of −50 cm head (cm H2O) (0.01 mg/kg intraduodenal, 150 min after administration): inhibited

CNCC[C@@H](Oc1ccccc1C)c1ccccc1 [atomoxetine]
inhibited upper airway collapsibility at all negative pressures of −50, −100 and −150 cm head (cm H2O) in all pigs (intravenous bolus 20 μg/kg then infusion 12.5 μg/kg/h for four hours): at no time | Percent pigs without collaps −50 cm H2O, % [1]: 0% | Percent pigs without collaps −50 cm H2O, % [2]: 0% | Percent pigs without collaps −50 cm H2O, % [3]: 0% | Percent pigs without collaps −50 cm H2O, % [4]: 0% | Percent pigs without collaps −50 cm H2O, % [5]: 0% | Percent pigs without collaps −50 cm H2O, % [6]: 0% | Percent pigs without collaps −50 cm H2O, % [7]: 0% | Percent pigs without collaps −100 cm H2O, % [1]: 0% | Percent pigs without collaps −100 cm H2O, % [2]: 0% | Percent pigs without collaps −100 cm H2O, % [3]: 0% | Percent pigs without collaps −100 cm H2O, % [4]: 0% | Percent pigs without collaps −100 cm H2O, % [5]: 0% | Percent pigs without collaps −100 cm H2O, % [6]: 0% | Percent pigs without collaps −100 cm H2O, % [7]: 0% | Percent pigs without collaps −150 cm H2O, % [1]: 0% | Percent pigs without collaps −150 cm H2O, % [2]: 0% | Percent pigs without collaps −150 cm H2O, % [3]: 0% | Percent pigs without collaps −150 cm H2O, % [4]: 0% | Percent pigs without collaps −150 cm H2O, % [5]: 0% | Percent pigs without collaps −150 cm H2O, % [6]: 0% | Percent pigs without collaps −150 cm H2O, % [7]: 0%
